How the values were obtained:
[1] = system: Echinochloa oryzoides (Ard.) Fritsch.; assay: Preemergence weed control under flooded paddy conditions, ECHORC (Watergrass (Calif.)); assay type: in vivo; settings: preemergence, flooded paddy, rated three to four weeks after treatment
[2] = system: Monochoria vaginalis, Presl.; assay: Preemergence weed control under flooded paddy conditions, MOOVA (Monochoria); assay type: in vivo; settings: preemergence, flooded paddy, rated three to four weeks after treatment
[3] = system: Cyperus serotinus, Rottb.; assay: Preemergence weed control under flooded paddy conditions, CYPSE (Flatsedge); assay type: in vivo; settings: preemergence, rated three to four weeks after treatment
[4] = system: Cyperus iria; assay: Preemergence weed control under flooded paddy conditions, CYPIR (Rice Flatsedge); assay type: in vivo; settings: preemergence, flooded paddy, rated three to four weeks after treatment
[5] = system: Sagittaria pygmaea, L.; assay: Preemergence weed control under flooded paddy conditions, SAGPY (Arrowhead (Pygmaea)); assay type: in vivo; settings: preemergence, flooded paddy, rated three to four weeks after treatment
[6] = system: Oryza sativa, (L.) Tebonnet; assay: Rice tolerance to post-transplant applications under flooded paddy conditions (Example 187), ORYSAT (Rice, Tebonnet); settings: rated three to four weeks after treatment
Also: meaning of each grade not given here.

| SMILES | herbicidal effect rating, ECHORC ([1]; Rate 0.0320 kg/ha) | herbicidal effect rating, ECHORC ([1]; Rate 0.0620 kg/ha) | herbicidal effect rating, ECHORC ([1]; Rate 0.1250 kg/ha) | herbicidal effect rating, ECHORC ([1]; Rate 0.2500 kg/ha) | herbicidal effect rating, MOOVA ([2]; Rate 0.0320 kg/ha) | herbicidal effect rating, MOOVA ([2]; Rate 0.0620 kg/ha) | herbicidal effect rating, MOOVA ([2]; Rate 0.1250 kg/ha) | herbicidal effect rating, MOOVA ([2]; Rate 0.2500 kg/ha) | herbicidal effect rating, CYPSE ([3]; Rate 0.0320 kg/ha) | herbicidal effect rating, CYPIR ([4]; Rate 0.0320 kg/ha) | herbicidal effect rating, CYPIR ([4]; Rate 0.0620 kg/ha) | herbicidal effect rating, CYPIR ([4]; Rate 0.1250 kg/ha) | herbicidal effect rating, CYPIR ([4]; Rate 0.2500 kg/ha) | herbicidal effect rating, SAGPY ([5]; Rate 0.0320 kg/ha) | herbicidal effect rating, SAGPY ([5]; Rate 0.0620 kg/ha) | herbicidal effect rating, SAGPY ([5]; Rate 0.1250 kg/ha) | herbicidal effect rating, SAGPY ([5]; Rate 0.2500 kg/ha) | herbicidal effect rating ORYSAT ([6]; Rate 0.0320 kg/ha) | herbicidal effect rating ORYSAT ([6]; Rate 0.0620 kg/ha) | herbicidal effect rating ORYSAT ([6]; Rate 0.1250 kg/ha) | further results |
| --- | --- | --- | --- | --- | --- | --- | --- | --- | --- | --- | --- | --- | --- | --- | --- | --- | --- | --- | --- | --- | --- |
| C#CCC(C#N)(CC#C)c1nsc2ccc(-n3c(=O)cc(C(F)(F)F)n(C)c3=O)cc12 [Example 581, 1,2-Benzisothiazole-3-acetonitrile, 5-[3,6-dihydro-3-methyl-2,6-dioxo-4-(trifluoromethyl)-1(2H)-pyrimidinyl]-alpha,alpha-di-2-propynyl-] | 6.0 | 8.5 | 9.0 | 9.0 | 4.5 | 4.5 | 9.0 | 9.0 | 1.0 | 3.0 | 4.5 | 9.0 | 9.0 | 3.0 | 9.0 | 9.0 | 9.0 | 1.5 | 3.5 | 6.0 | herbicidal effect rating, CYPSE ([3]; Rate 0.0620 kg/ha): 1.5; herbicidal effect rating, CYPSE ([3]; Rate 0.1250 kg/ha): 6.0; herbicidal effect rating, CYPSE ([3]; Rate 0.2500 kg/ha): 8.0; herbicidal effect rating ORYSAT ([6]; Rate 0.2500 kg/ha): 7.0 |
| Cn1c(C(F)(F)F)cc(=O)n(-c2ccc3snc(C(C#N)(Cc4ccccc4)Cc4ccccc4)c3c2)c1=O [Example 582, 1,2-Benzisothiazole-3-acetonitrile, alpha,alpha-dibenzyl-5-[3,6-dihydro-3-methyl-2,6-dioxo-4-(trifluoromethyl)-1(2H)-pyrimidinyl]-] | 6.0 | 7.0 | 7.0 | 9.0 | 7.0 | 7.0 | 7.0 | 7.0 | 0.0 | 3.0 | 4.0 | 6.0 | 6.0 | 5.0 | 5.0 | 6.0 | 6.0 | 0.0 | 0.0 | 0.0 | herbicidal effect rating, CYPSE ([3]; Rate 0.0620 kg/ha): 0.0; herbicidal effect rating, CYPSE ([3]; Rate 0.1250 kg/ha): 0.0; herbicidal effect rating, CYPSE ([3]; Rate 0.2500 kg/ha): 7.0; herbicidal effect rating ORYSAT ([6]; Rate 0.2500 kg/ha): 3.0 |
| CC(C#N)c1nsc2ccc(-n3c(=O)cc(C(F)(F)F)n(C)c3=O)cc12 (stereo not drawn) [Example 583, 1,2-Benzisothiazole-3-acetonitrile, 5-[3,6-dihydro-3-methyl-2,6-dioxo-4-(trifluoromethyl)-1(2H)-pyrimidinyl]-alpha-methyl-] | 3.0 | 7.5 | 9.0 | 9.0 | 6.0 | 9.0 | 9.0 | 9.0 | 8.5 | 9.0 | 9.0 | 9.0 | 9.0 | 9.0 | 9.0 | 9.0 | 9.0 | 5.0 | 7.0 | 9.0 | herbicidal effect rating, CYPSE ([3]; Rate 0.0620 kg/ha): 9.0; herbicidal effect rating, CYPSE ([3]; Rate 0.1250 kg/ha): 9.0; herbicidal effect rating, CYPSE ([3]; Rate 0.2500 kg/ha): 9.0; herbicidal effect rating ORYSAT ([6]; Rate 0.2500 kg/ha): 9.0 |
| Cn1c(C(F)(F)F)cc(=O)n(-c2ccc3snc(COCc4ccc(Cl)cc4)c3c2)c1=O [Example 584, 2,4(1H,3H)-Pyrimidinedione, 3-{3-{[(p-chlorobenzyl)oxy]methyl}-1,2-benzisothiazol-5-yl}-1-methyl-6-(trifluoromethyl)-] | 6.0 | 9.0 | 9.0 | 9.0 | 3.0 | 8.0 | 9.0 | 9.0 | 0.0 | 1.5 | 6.0 | 9.0 | 9.0 | 0.0 | 1.5 | 4.0 | 2.0 | 0.0 | 1.0 | 1.0 | herbicidal effect rating, CYPSE ([3]; Rate 0.0620 kg/ha): 0.0; herbicidal effect rating, CYPSE ([3]; Rate 0.2500 kg/ha): 0.0; herbicidal effect rating ORYSAT ([6]; Rate 0.2500 kg/ha): 3.5 |
| Cn1c(C(F)(F)F)cc(=O)n(-c2ccc3snc(COCc4ccc(Cl)cc4Cl)c3c2)c1=O [Example 585, 2,4(1H,3H)-Pyrimidinedione, 3-{3-{[(2,4-dichlorobenzyl)oxy]methyl}-1,2-benzisothiazol-5-yl}-1-methyl-6-(trifluoromethyl)-] | 5.0 | 8.5 | 8.5 | 9.0 | 3.5 | 3.5 | 4.5 | 9.0 | 0.0 | 2.5 | 8.5 | 9.0 | 9.0 | 0.0 | 1.5 | 2.0 | 2.5 | 1.0 | 1.5 | 1.5 | herbicidal effect rating, CYPSE ([3]; Rate 0.0620 kg/ha): 0.0; herbicidal effect rating, CYPSE ([3]; Rate 0.1250 kg/ha): 0.0; herbicidal effect rating, CYPSE ([3]; Rate 0.2500 kg/ha): 3.0; herbicidal effect rating ORYSAT ([6]; Rate 0.2500 kg/ha): 1.5 |
| Cn1c(C(F)(F)F)cc(=O)n(-c2ccc3snc(COCc4ccc(Cl)c(Cl)c4)c3c2)c1=O [Example 586, 2,4(1H,3H)-Pyrimidinedione, 3-{3-{[(3,4-dichlorobenzyl)oxy]methyl}-1,2-benzisothiazol-5-yl}-1-methyl-6-(trifluoromethyl)-] | 8.0 | 9.0 | 9.0 | 9.0 | 9.0 | 6.5 | 9.0 | 9.0 | 0.0 | 8.0 | 8.5 | 9.0 | 9.0 | 0.0 | 0.0 | 0.0 | 0.0 | 1.0 | 2.0 | 2.0 | herbicidal effect rating, CYPSE ([3]; Rate 0.0620 kg/ha): 0.0; herbicidal effect rating, CYPSE ([3]; Rate 0.1250 kg/ha): 4.5; herbicidal effect rating, CYPSE ([3]; Rate 0.2500 kg/ha): 4.5; herbicidal effect rating ORYSAT ([6]; Rate 0.2500 kg/ha): 2.0 |
| Cc1cccc(COCc2nsc3ccc(-n4c(=O)cc(C(F)(F)F)n(C)c4=O)cc23)c1 [Example 587, 2,4(1H,3H)-Pyrimidinedione, 1-methyl-3-{3-{[(m-methylbenzyl)oxy]methyl}-1,2-benzisothiazol-5-yl}-6-(trifluoromethyl)-] | 7.0 | 7.0 | 9.0 | 9.0 | 5.0 | 5.0 | 9.0 | 9.0 | 0.0 | 4.0 | 8.0 | 9.0 | 9.0 | 0.0 | 2.0 | 5.0 | 5.0 | 4.0 | 4.0 | 4.0 | herbicidal effect rating, CYPSE ([3]; Rate 0.1250 kg/ha): 0.0; herbicidal effect rating ORYSAT ([6]; Rate 0.2500 kg/ha): 5.0 |

— patent EP0908457B1, “3-(1,2-benzisothiazol- and isoxazol-5-Y1)-2,4(1H,3H)-pyrimidinedione or thione and 3-(1,2-benzisothiazol- and isoxazol-5-y1)-4(3H)-pyrimidinone or thione herbicidal agents” (BASF AKTIENGESELLSCHAFT, priority 1997, dated 1999)
